Tests used:
[1] = target: T1, catalytic mutant caspase-11 full length (C254A) (Mus musculus, UniProt P70343, C254A); test: SPR analysis of lipid binding to immobilized full length caspase-11 (C254A)
T1 construct: recombinant catalytic mutant caspase-11 full length (C254A); His; made in house; host or cells: SF-21 insect cells (baculovirus)
T1 sequence (P70343 81-373 C254A): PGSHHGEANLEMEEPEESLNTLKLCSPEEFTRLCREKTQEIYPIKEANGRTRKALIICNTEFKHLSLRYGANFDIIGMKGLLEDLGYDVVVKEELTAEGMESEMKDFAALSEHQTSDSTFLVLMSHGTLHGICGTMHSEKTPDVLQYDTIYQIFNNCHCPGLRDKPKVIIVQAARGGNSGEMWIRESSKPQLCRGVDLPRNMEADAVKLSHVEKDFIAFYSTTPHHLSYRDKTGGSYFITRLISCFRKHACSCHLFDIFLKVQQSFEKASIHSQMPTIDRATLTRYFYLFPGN
Description: For studies to measure the direct binding of oxPAPC to caspase-11, proteins and SPR analysis was performed as described (Shi, J., et al., (2014b) Nature). Briefly, the recombinant catalytic mutant caspase-11 full length (C254A) and caspase-11 ΔN59 (C254A) were purified from P3 baculovirus infected SF-21 insect cells that were cultured in Sf900™ II SFM for 72 h at 28° C. Cells were lysed in lysis buffer containing 1% Triton X-100, 50 mM Tris-HCl (pH 7.6), 300 mM NaCl, 50 mM imidazole and 5 mM 2-mercaptoethanol. Ni-NTA beads (Qiagen) were used to purify His-tagged proteins from lysates. Proteins were released from the beads with elution buffer containing 50 mM Tris-HCl (pH 7.6), 250 mM imidazole and 300 mM NaCl. Imidazole was removed by dialysis. The proteins were further purified with HiTrap Q column and Superdex G200 column (GE Healthcare Life Sciences) to reach high homogeneity.
For surface plasmon resonance (SPR) analysis, BIAcore T100 SPR instrument (GE Healthcare) was used to measure the ligand binding kinetics. The assays were performed in a buffer containing 150 mM NaCl, 3 mM EDTA, 50 mM HEPES (pH 7.5) and 0.005% Tween-20 at 25° C. […] The KD values were calculated by fitting result curves (subtracted the control flow cell value) to a 1:1 Langmuir binding model with the BIAcore T100 evaluation software.

[2] = tested on: DCs; test: TNFα secretion from DCs (ELISA); format: cell-based, mouse; settings: LPS-primed DCs
Excerpt: C57BL/6J (Jax 000664), C57BL/6NJ (Jax 005304), CD14 KO (Jax 003726), caspase-1/-11 dKO mice (Jax 016621), TLR4-mutant (C3H/HeJ, Jax 000659), and wild-type control for TLR4-mutant (C3H/HeSNJ, Jax 000661) were purchased from Jackson Labs. NLRP3 KO and ASC KO mice were kindly provided by Dr. T. Horng, Harvard School of Public Health. Caspase-11 KO mice were kindly provided by Dr. Junying Yuan, Harvard Medical School. Caspase-1 single KO mice were kindly provided by Thirumala-Devi Kanneganti (St. Judes). DCs were differentiated from bone marrow in IMDM (Gibco), 10% B16-GM-CSF derived supernatant, 2 μM 2-mercaptoethanol and 10% FBS and used after 6 day of culture. DC purity was assessed by flow cytometry and was usually higher than 90%. MO were differentiated from bone marrow in DMEM (Gibco), 30% L929 supernatant, and 10% FBS. Immortal MΦs were cultured in DMEM supplemented with 10% L929 supernatant and 10% FBS. Splenic DCs were purified as described previously (Zanoni et al., 2012). Prior to stimulations, cultured cells were washed and re-plated in DMEM supplemented with 10% FBS at a concentration of 1×10^6 cells/ml in a final volume of 100 μl. For experiments using pan-caspase inhibitor, cells were treated with zVADfmk (20 μM) 30 min before inflammasome activation stimuli addition. […]
RNA was isolated from cell cultures using Qiashedder (Qiagen) and GeneJET RNA Purification Kit (Life Technologies). Purified RNA was analyzed for gene expression on a CFX384 real time cycler (Bio-rad) using TaqMan RNA-to-CT 1-Step Kit (Applied Biosystems) with probes purchased from Life Technologies specific for viperin (Mm00491265_m1), IFNb1 (Mm00439552_s1), IL6 (Mm00446190_m1), caspase-1 (Mm00438023_m1), caspase-11 (Mm00432307_m1), Nlrp3 (Mm00840904_m1), Asc (Mm00445747_g1), TBP (Mm00446971_m1) or GAPDH (Mm99999915_g1). ELISA for IL-1β, IL-2, IL-17, IL-18, TNFα and IFNγ were performed using Mouse Ready-SET-Go ELISA kits (eBioscience). […] Cell associated cytokines were measured as follows: 96-well plates were centrifuged and supernatant was discarded. […]

[3] = tested on: bone marrow derived DCs; test: IL-1β release from DCs (ELISA); format: cell-based, mouse; settings: for IL-1β release: LPS-primed DCs
Description: NLRP3 KO and ASC KO mice were kindly provided by Dr. T. Horng, Harvard School of Public Health. Caspase-11 KO mice were kindly provided by Dr. Junying Yuan, Harvard Medical School. Caspase-1 single KO mice were kindly provided by Thirumala-Devi Kanneganti (St. Judes). DCs were differentiated from bone marrow in IMDM (Gibco), 10% B16-GM-CSF derived supernatant, 2 μM 2-mercaptoethanol and 10% FBS and used after 6 day of culture. […] MO were differentiated from bone marrow in DMEM (Gibco), 30% L929 supernatant, and 10% FBS. Immortal MΦs were cultured in DMEM supplemented with 10% L929 supernatant and 10% FBS. […] For experiments using pan-caspase inhibitor, cells were treated with zVADfmk (20 μM) 30 min before inflammasome activation stimuli addition. Cycloheximide (50 ng/ml) was added at the time of stimuli administration. Transfection with DOTAP was performed following the manufacturer instructions. […] 30 min later, the DOTAP/LPS or DOTAP/oxPAPC complex were added to the culture.
RNA was isolated from cell cultures using Qiashedder (Qiagen) and GeneJET RNA Purification Kit (Life Technologies). Purified RNA was analyzed for gene expression on a CFX384 real time cycler (Bio-rad) using TaqMan RNA-to-CT 1-Step Kit (Applied Biosystems) with probes purchased from Life Technologies specific for viperin (Mm00491265_m1), IFNb1 (Mm00439552_s1), IL6 (Mm00446190_m1), caspase-1 (Mm00438023_m1), caspase-11 (Mm00432307_m1), Nlrp3 (Mm00840904_m1), Asc (Mm00445747_g1), TBP (Mm00446971_m1) or GAPDH (Mm99999915_g1). ELISA for IL-1β, IL-2, IL-17, IL-18, TNFα and IFNγ were performed using Mouse Ready-SET-Go ELISA kits (eBioscience). To measure secreted cytokines, supernatant were collected, clarified by centrifugation and stored at −20° C. Cell associated cytokines were measured as follows: 96-well plates were centrifuged and supernatant was discarded. 250 μl of PBS were added to each well. Cells were frozen and thawed two times at −80° C. and then stored at −20° C. for further analysis.

[4] = tested on: inflammasome in DCs; test: Inflammasome activation (FIGS. 6-42); format: cell-based
[5] = target: T2, TLR4 (Mus musculus, UniProt Q9JHF9+Q9QUK6); test: TLR4 endocytosis (surface staining, flow cytometry); format: cell-based; settings: cycloheximide treatment
T2 construct: endogenous in cells; host or cells: iMΦ, primary bone marrow derived MΦ and DCs
T2 sequence (Q9QUK6 26-835): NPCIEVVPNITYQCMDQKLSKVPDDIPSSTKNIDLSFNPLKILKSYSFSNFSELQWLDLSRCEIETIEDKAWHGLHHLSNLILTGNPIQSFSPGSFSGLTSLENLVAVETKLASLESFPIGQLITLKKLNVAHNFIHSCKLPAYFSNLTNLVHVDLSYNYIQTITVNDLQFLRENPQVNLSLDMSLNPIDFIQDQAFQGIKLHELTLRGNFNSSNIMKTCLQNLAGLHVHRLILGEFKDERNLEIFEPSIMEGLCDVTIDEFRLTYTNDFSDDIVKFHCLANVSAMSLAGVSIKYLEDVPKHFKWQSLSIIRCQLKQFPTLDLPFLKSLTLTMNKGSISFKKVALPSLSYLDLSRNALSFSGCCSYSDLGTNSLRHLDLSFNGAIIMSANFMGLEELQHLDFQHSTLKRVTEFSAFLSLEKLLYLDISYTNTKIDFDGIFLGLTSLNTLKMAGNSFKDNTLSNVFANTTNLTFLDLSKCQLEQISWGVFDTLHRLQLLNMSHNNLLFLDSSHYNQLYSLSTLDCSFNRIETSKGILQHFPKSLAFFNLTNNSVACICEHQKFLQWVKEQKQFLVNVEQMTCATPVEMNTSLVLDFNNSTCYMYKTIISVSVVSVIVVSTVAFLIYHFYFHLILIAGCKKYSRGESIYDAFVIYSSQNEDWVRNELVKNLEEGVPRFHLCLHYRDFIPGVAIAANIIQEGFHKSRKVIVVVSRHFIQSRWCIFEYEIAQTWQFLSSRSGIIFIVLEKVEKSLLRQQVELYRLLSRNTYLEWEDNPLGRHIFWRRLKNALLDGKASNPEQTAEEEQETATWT
T2 sequence (Q9JHF9 19-160): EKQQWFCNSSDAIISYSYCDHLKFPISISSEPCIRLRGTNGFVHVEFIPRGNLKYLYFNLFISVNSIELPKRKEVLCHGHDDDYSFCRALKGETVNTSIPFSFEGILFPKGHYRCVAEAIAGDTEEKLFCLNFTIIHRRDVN
Description: (§1) primary bone marrow derived MΦs and DCs or splenic DCs (0.5×10^6) of the indicated genotypes were treated with E. coli LPS, oxPAPC or chemical inhibitors for the indicated time points at 37° C. Cells were then washed with 1 mL cold PBS and stained for appropriate antibodies on ice for 20 to 30 minutes. 2% mouse serum or rat serum were used as the blocking reagent to reduce non-specific binding of the antibodies. The stained cells were then washed with 1 mL cold PBS and resuspended in 200 μL PBS. Staining of the surface receptors was analyzed with BD FACSCanto II. The mean fluorescence intensity (MFI) of CD14, TLR4 from unstimulated or stimulated cells was recorded. The percentage of surface receptor staining at indicated time points, which is the ratio of the MFI values measured from the stimulated cells to those measured from the unstimulated cells, was plotted to reflect the efficiency of receptor endocytosis. For measuring the extent of TLR4/MD-2 dimerization, the percentage of TLR4/MD2 dimer was calculated by 100%−the percentage of TLR4/MD-2 monomer. The percentage of the TLR4/MD-2 monomer was determined by the ratio of the MFI values (obtained from MTS510 antibody staining) of the stimulated cells to those of the unstimulated cells were indicated. Cells were stained with anti-MHC class II or anti-CD40 antibodies.

[6] = target: T3, CD14 (Mus musculus, UniProt P10810); test: CD14 endocytosis (surface staining, flow cytometry); format: cell-based; settings: protein synthesis blocked with cycloheximide
T3 construct: endogenous in cells; host or cells: iMΦ, primary bone marrow derived MΦ and DCs
T3 sequence (P10810 16-336 limits assumed): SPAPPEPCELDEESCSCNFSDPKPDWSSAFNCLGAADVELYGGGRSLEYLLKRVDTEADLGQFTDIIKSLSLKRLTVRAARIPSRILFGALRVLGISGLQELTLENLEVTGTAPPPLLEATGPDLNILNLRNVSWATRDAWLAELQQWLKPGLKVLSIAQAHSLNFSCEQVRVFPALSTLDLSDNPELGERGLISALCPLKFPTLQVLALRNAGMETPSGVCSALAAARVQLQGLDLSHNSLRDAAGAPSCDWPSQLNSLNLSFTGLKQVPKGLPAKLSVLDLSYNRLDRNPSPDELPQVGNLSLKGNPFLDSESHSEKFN
Description: as §1

`CCCCCCCCCCCCCC(=O)OC[C@H](COP(=O)([O-])OCC[N+](C)(C)C)OC(=O)CCCCCCCCCCCCC` [DMPC, 1,2-dimyristoyl-sn-glycero-3-phosphocholine] was tested, and the “binding to immobilized caspase-11(C254A) on SPR” value [1] was “did not bind detectably”, the TNFα release [2] was “not affected” and the IL-1β release [3] was “unable to elicit IL-1β release”.

`CCCCCCCCCCCCCCCC(=O)OC[C@H](COP(=O)([O-])OCC[N+](C)(C)C)OC(=O)CCCC(=O)/C=C/C(=O)O` [KOdiA-PC, 1-(Palmitoyl)-2-(5-keto-6-octene-dioyl) phosphatidylcholine] was tested, and the inflammasome activation [4] was “activated the inflammasome in DCs”, the TNFα release [2] was “not affected” and the IL-1β release [3] was “able to elicit IL-1β secretion”.

In the case of `CCN(CC)CCCC(C)Nc1ccnc2cc(Cl)ccc12` (stereo not drawn) [chloroquine], the “IL-1β release from DCs” value ([3]; chloroquine pre-treatment, LPS-primed, oxPAPC-treated) is reported as “promoted slightly more release of IL-1β”.

In the case of `C[C@@H]1C[C@@H]([C@H](O)CC2CC(=O)NC(=O)C2)C(=O)[C@@H](C)C1` [cycloheximide], the “TLR4 internalization or dimerization” value [5] is reported as “did not affect” and the “extent of oxPAPC- or LPS-induced CD14 endocytosis” value [6] is reported as “enhanced”.
